Square brackets hold non-standard residues; d marks the D form. Peptide text beside a SMILES is read from it.

The text below walks through data of ChEMBL document CHEMBL3580664, “Synthesis and Pharmacology of α/β(3)-Peptides Based on the Melanocortin Agonist Ac-His-dPhe-Arg-Trp-NH2 Sequence” (ACS Med Chem Lett, 2015).

In experiment [1] the target is Melanocortin receptor 4 (Mus musculus, UniProt P56450). The experiment in a line: Agonist activity at mouse MC4 receptor expressed in HEK-293 cells assessed as cAMP response measured after 2 hrs incubation by cAMP Alphascreen assay. The format is functional, cell-based, HEK293.
Chain of Melanocortin receptor 4 (P56450 whole entry): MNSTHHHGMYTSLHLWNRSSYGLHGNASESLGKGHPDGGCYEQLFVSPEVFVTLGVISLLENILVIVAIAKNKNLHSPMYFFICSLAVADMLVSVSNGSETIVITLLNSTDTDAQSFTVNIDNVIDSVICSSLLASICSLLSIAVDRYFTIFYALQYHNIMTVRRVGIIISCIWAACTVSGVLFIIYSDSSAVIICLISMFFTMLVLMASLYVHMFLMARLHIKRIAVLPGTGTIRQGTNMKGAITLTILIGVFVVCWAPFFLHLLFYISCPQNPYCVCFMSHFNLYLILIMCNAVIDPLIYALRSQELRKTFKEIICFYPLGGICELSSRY
The target in experiment [2] is Melanocyte-stimulating hormone receptor (Mus musculus) (UniProt Q01727). Kind of experiment: Agonist activity at mouse MC1 receptor expressed in HEK-293 cells assessed as cAMP response measured at 100 uM after 2 hrs incubation by cAMP Alphascreen assay relative to control. The format is functional, cell-based. Particulars: HEK293.
Chain of Melanocyte-stimulating hormone receptor (Mus musculus) (Q01727 whole entry, looked up): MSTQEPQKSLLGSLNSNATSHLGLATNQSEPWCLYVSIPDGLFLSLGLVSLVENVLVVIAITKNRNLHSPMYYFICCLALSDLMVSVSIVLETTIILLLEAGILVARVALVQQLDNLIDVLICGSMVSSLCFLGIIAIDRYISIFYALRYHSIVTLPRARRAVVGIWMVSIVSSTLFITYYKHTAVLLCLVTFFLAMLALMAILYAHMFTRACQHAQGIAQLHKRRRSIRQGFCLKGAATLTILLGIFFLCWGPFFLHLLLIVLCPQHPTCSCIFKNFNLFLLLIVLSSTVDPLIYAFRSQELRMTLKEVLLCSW
Experiment [3] deals with Melanocyte-stimulating hormone receptor (Mus musculus, UniProt Q01727). The experiment in a line: Agonist activity at mouse MC1 receptor expressed in HEK-293 cells assessed as cAMP response measured after 2 hrs incubation by cAMP Alphascreen assay. The format is functional, cell-based, HEK293.
Chain of Melanocyte-stimulating hormone receptor (Q01727 whole entry): as the sequence (Q01727 whole entry, looked up) above
Experiment [4] deals with Melanocortin receptor 3 (Mus musculus) (UniProt P33033). The experiment in a line: Agonist activity at mouse MC3 receptor expressed in HEK-293 cells assessed as cAMP response measured at 100 uM after 2 hrs incubation by cAMP Alphascreen assay relative to control. Particulars: HEK293. The format is functional, cell-based.
Chain of Melanocortin receptor 3 (Mus musculus) (P33033 whole entry): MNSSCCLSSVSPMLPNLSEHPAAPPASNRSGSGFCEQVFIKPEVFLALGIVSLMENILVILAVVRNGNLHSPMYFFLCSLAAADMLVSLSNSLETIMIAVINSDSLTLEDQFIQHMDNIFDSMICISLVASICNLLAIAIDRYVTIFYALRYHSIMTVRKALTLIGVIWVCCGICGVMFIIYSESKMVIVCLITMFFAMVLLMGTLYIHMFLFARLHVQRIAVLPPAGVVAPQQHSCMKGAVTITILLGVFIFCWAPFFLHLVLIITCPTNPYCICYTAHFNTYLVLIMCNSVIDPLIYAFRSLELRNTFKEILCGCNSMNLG
Experiment [5] deals with Melanocortin receptor 5 (Mus musculus, UniProt P41149). Kind of experiment: Agonist activity at mouse MC5 receptor expressed in HEK-293 cells assessed as cAMP response measured after 2 hrs incubation by cAMP Alphascreen assay. It counts as functional, cell-based, HEK293.
Chain of Melanocortin receptor 5 (P41149 whole entry): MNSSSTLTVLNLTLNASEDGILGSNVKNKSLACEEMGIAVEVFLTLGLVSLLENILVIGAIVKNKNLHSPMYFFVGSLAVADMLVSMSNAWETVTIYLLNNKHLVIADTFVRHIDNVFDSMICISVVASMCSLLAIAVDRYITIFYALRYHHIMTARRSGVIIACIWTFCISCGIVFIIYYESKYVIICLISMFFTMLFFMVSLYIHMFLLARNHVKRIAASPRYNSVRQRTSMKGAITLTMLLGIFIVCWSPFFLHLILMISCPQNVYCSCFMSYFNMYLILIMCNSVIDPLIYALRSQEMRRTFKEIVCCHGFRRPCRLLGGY
Experiment [6] concerns the target Melanocortin receptor 4 (Mus musculus) (UniProt P56450). Kind of experiment: Agonist activity at mouse MC4 receptor expressed in HEK-293 cells assessed as cAMP response measured at 100 uM after 2 hrs incubation by cAMP Alphascreen assay relative to control. The format is functional, cell-based. Particulars: HEK293.
Experiment [7] concerns the target Melanocortin receptor 5 (Mus musculus) (UniProt P41149). The experiment in a line: Agonist activity at mouse MC5 receptor expressed in HEK-293 cells assessed as cAMP response measured at 100 uM after 2 hrs incubation by cAMP Alphascreen assay relative to control. The conditions noted are these: HEK293. The format is functional, cell-based.
For experiment [8], the target named is Melanocortin receptor 3 (Mus musculus, UniProt P33033). Kind of experiment: Agonist activity at mouse MC3 receptor expressed in HEK-293 cells assessed as cAMP response measured after 2 hrs incubation by cAMP Alphascreen assay. The format is functional, cell-based, HEK293.
Chain of Melanocortin receptor 3 (P33033 whole entry): as the sequence (P33033 whole entry) above
Experiment [9] is filed under the species Mus musculus. Kind of experiment: Selectivity ratio for mouse MC3 receptor over mouse MC4 receptor.

Chain of Melanocortin receptor 4 (Mus musculus) (P56450 whole entry): as the sequence (P56450 whole entry) above
Chain of Melanocortin receptor 5 (Mus musculus) (P41149 whole entry): as the sequence (P41149 whole entry) above

As to `CC(=O)N[C@@H](Cc1cnc[nH]1)C(=O)N[C@H](Cc1ccccc1)C(=O)N[C@@H](CCCN=C(N)N)C(=O)N[C@@H](Cc1c[nH]c2ccccc12)C(N)=O`, in experiment [1], the EC50 came to 5.6 nM.

As for `CC(=O)N[C@@H](Cc1ccccc1)C(=O)N[C@@H](CCCN=C(N)N)C(=O)N[C@@H](Cc1c[nH]c2ccccc12)C(N)=O` (Ac-Phe-Arg-Trp-NH2), the Activity in [2] was 60%.

Regarding `CC(=O)N[C@@H](Cc1c[nH]cn1)C(=O)N[C@H](CC(=O)N[C@@H](CCCNC(=N)N)C(=O)N[C@@H](Cc1c[nH]c2ccccc12)C(N)=O)Cc1ccccc1`, the EC50 in experiment [3] came to 6580 nM; in [1] it was 7680 nM; in [5] it was 4810 nM. In experiment [4], the Activity was 70%.

Take `CC(=O)N[C@H](Cc1ccccc1)C(=O)N[C@@H](CCCN=C(N)N)C(=O)N[C@@H](Cc1c[nH]c2ccccc12)C(N)=O` (Ac-[dF]-Arg-Trp-NH2): in [3], the EC50 was determined as 10000 nM. For the same compound, the results for the Activity in experiment [4], in experiment [6] and in [7] were 40%, 70% and 70%, respectively.

As for `CC(=O)N[C@@H](Cc1c[nH]cn1)C(=O)N[C@@H](Cc1ccccc1)C(=O)N[C@@H](CCCN=C(N)N)C(=O)N[C@@H](Cc1c[nH]c2ccccc12)C(N)=O`, the EC50 was determined as 1210 nM in [1] and 70 nM in experiment [5].

With `CC(=O)N[C@@H](Cc1c[nH]cn1)C(=O)N[C@H](Cc1ccccc1)C(=O)N[C@@H](CCCNC(=N)N)CC(=O)N[C@@H](Cc1c[nH]c2ccccc12)C(N)=O`, the EC50 in experiment [3] stood at 37 nM; in experiment [8], 854 nM; in [1], 70 nM; in experiment [5], 73 nM. Besides, the Selectivity ratio in experiment [9] turned out to be 12.

As for `CC(=O)N[C@@H](Cc1c[nH]cn1)C(=O)N[C@H](Cc1ccccc1)C(=O)N[C@@H](CCCNC(=N)N)C(=O)N[C@H](CC(N)=O)Cc1c[nH]c2ccccc12`, the concentration giving a half-maximal response (EC50) was 33 nM in experiment [3], 415 nM in [8], 12 nM in experiment [1] and 5.6 nM in [5]. For the same compound, the Selectivity ratio in experiment [9] amounted to 35.

On to `CC(=O)N[C@@H](Cc1c[nH]cn1)C(=O)N[C@@H](CC(=O)N[C@@H](CCCNC(=N)N)C(=O)N[C@@H](Cc1c[nH]c2ccccc12)C(N)=O)Cc1ccccc1`, for which the EC50 in experiment [3] came to 7030 nM. Further, the Activity in experiment [4] was 50%; in experiment [6], 60%; in experiment [7] it was 60%.

As to `CC(=O)N[C@@H](Cc1ccccc1)C(=O)N[C@@H](CCCNC(=N)N)C(=O)N[C@@H](Cc1c[nH]c2ccccc12)C(N)=O` (Ac-Phe-Arg-Trp-NH2), the EC50 in [8], in experiment [1] and in [5] was above 100000 nM throughout.
